Data reported in the NIST ThermoML archive (doi:10.1021/je060092t).

Assay: cn = amount concentration of the nth substance listed, in mol/dm3
Settings: Liquid, Taylor dispersion method

binary diffusion coefficient (298.15 K, c1 = 0.1) [m2/s] | binary diffusion coefficient (298.15 K, c1 = 0.002) [m2/s] | binary diffusion coefficient (298.15 K, c1 = 0.004) [m2/s] | binary diffusion coefficient (298.15 K, c1 = 0.006) [m2/s] | binary diffusion coefficient (298.15 K, c1 = 0.008) [m2/s] | binary diffusion coefficient (303.15 K, c1 = 0.002) [m2/s] | binary diffusion coefficient (303.15 K, c1 = 0.004) [m2/s] | binary diffusion coefficient (303.15 K, c1 = 0.006) [m2/s] | binary diffusion coefficient (303.15 K, c1 = 0.008) [m2/s] | binary diffusion coefficient (308.15 K, c1 = 0.002) [m2/s] | binary diffusion coefficient (308.15 K, c1 = 0.004) [m2/s] | binary diffusion coefficient (308.15 K, c1 = 0.006) [m2/s] | binary diffusion coefficient (308.15 K, c1 = 0.008) [m2/s] | binary diffusion coefficient (312.15 K, c1 = 0.002) [m2/s] | binary diffusion coefficient (312.15 K, c1 = 0.004) [m2/s] | binary diffusion coefficient (312.15 K, c1 = 0.006) [m2/s] | binary diffusion coefficient (312.15 K, c1 = 0.008) [m2/s] | SMILES
5.26e-10 |  |  |  |  |  |  |  |  |  |  |  |  |  |  |  |  | OC[C@H]1O[C@@](CO)(O[C@H]2O[C@H](CO)[C@@H](O)[C@H](O)[C@H]2O)[C@@H](O)[C@@H]1O [D-sucrose] + O
1.81e-09 |  |  |  |  |  |  |  |  |  |  |  |  |  |  |  |  | [Cl-].[K+] [potassium chloride] + O
 | 3.24e-10 | 3.23e-10 | 3.21e-10 | 3.18e-10 | 3.89e-10 | 3.88e-10 | 3.81e-10 | 3.78e-10 | 4.3e-10 | 4.28e-10 | 4.27e-10 | 4.23e-10 | 4.56e-10 | 4.54e-10 | 4.54e-10 | 4.53e-10 | OC[C@H]1O[C@@H]2O[C@H]3[C@H](O)[C@@H](O)[C@@H](O[C@H]4[C@H](O)[C@@H](O)[C@@H](O[C@H]5[C@H](O)[C@@H](O)[C@@H](O[C@H]6[C@H](O)[C@@H](O)[C@@H](O[C@H]7[C@H](O)[C@@H](O)[C@@H](O[C@H]8[C@H](O)[C@@H](O)[C@@H](O[C@H]1[C@H](O)[C@H]2O)O[C@@H]8CO)O[C@@H]7CO)O[C@@H]6CO)O[C@@H]5CO)O[C@@H]4CO)O[C@@H]3CO [β-cyclodextrin] + O
